Consider 24 compounds from patent US10913738B2 (BRISTOL-MYERS SQUIBB COMPANY, priority 2017, dated 2021).

Assay [1] deals with T1, His-GST-TVMV-hRIPK1(1-324) (Homo sapiens, UniProt Q13546).
T1 construct: The coding region of human RIPK1(1-324) flanked by NdeI site at 5′ end; made in house; host or cells: Spodoptera frugiperda (Sf9) insect cells, baculovirus
T1 sequence (Q13546 1-324): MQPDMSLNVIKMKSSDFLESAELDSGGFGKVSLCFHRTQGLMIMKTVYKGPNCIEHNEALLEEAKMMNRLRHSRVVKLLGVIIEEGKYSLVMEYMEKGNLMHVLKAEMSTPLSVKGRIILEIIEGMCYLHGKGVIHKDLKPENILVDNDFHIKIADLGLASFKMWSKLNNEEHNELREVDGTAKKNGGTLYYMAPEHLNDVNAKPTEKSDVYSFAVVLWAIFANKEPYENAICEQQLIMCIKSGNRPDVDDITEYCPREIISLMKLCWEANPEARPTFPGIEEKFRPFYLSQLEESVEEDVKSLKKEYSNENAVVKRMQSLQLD
As to the kind of experiment: RIPK1 HTRF Binding Assay. Background: In TR-FRET formats the signal depends on donor and acceptor labels being close together.

Assay [2] deals with MLKL phosphorylation in HT29-L23 human colorectal adenocarcinoma cells. The assay can be described thus: MLKL Phosphorylation High-Content Assay. The class given is cell-based. To be noted: Homo sapiens. The method in brief: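 Cells incubated six hours at 37° C., then phospho-MLKL (S358) immunostained overnight at 4° C. and imaged by high-content microscopy. Phosphorylation quantified as mean circ-ring average intensity ratio; IC50 and Ymax from 4-parameter logistic fits.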

Where [3] appears, read: x marks IC50 class >200 nM, read-out: RIPK1 HTRF binding >200 nM.
Setting [4] is: x marks IC50 class >200 nM, read-out: pMLKL cell activity >200 nM.
The mark [5] stands for this setting: x marks IC50 class <20 nM, read-out: RIPK1 HTRF binding <20 nM.
The mark [6] stands for this setting: x marks IC50 class 20-200 nM, read-out: pMLKL cell activity 20-200 nM.
Where [7] appears, read: x marks IC50 class 20-200 nM, read-out: RIPK1 HTRF binding 20-200 nM.
The mark [8] stands for this setting: x marks IC50 class <20 nM, read-out: pMLKL cell activity <20 nM.

Like-named read-outs stand apart in the source and are kept apart here.

As to `CCOc1ncc(-c2ccn3nc(N)nc3c2)cc1C(=O)NCC[C@@H](O)c1ccc(Cl)cc1` [Example 276, 5-{2-amino-[1,2,4]triazolo[1,5-a]pyridin-7-yl}-N-[(3R)-3-(4-chlorophenyl)-3-hydroxypropyl]-2-ethoxypyridine-3-carboxamide], the IC50 in assay [1] (setting [3]) and in assay [2] (setting [4]) was > 200 nM throughout.

For the compound `COc1ncc(-c2ccn3nc(N)nc3c2)cc1C(=O)NCc1ccccc1OCC1CCCCC1` [Example 123, 5-{2-amino-[1,2,4]triazolo[1,5-a]pyridin-7-yl}-N-{[2-(cyclohexylmethoxy)phenyl]methyl}-2-methoxypyridine-3-carboxamide], the values for the IC50 in assay [1] (setting [5]) and in assay [2] (setting [6]) were < 20 nM and 20 to 200 nM, respectively.

As for `COc1ncc(-c2ccn3nc(N)nc3c2)cc1C(=O)NCc1cc(F)cc(F)c1OC1CCCOC1` (stereo not drawn) [Example 342, 5-(2-amino-[1,2,4]triazolo[1,5-a]pyridin-7-yl)-N-(3,5-difluoro-2-((tetrahydro-2H-pyran-3-yl)oxy)benzyl)-2-methoxynicotinamide], the IC50 in assay [1] (setting [5]) is < 20 nM; in assay [2] (setting [6]) it was 20 to 200 nM.

In the case of `Cc1nc(C)c(-c2ccn3nc(N)nc3c2)cc1C(=O)NCc1ccccc1OCC1CCCC1` [Example 186, 5-{2-amino-[1,2,4]triazolo[1,5-a]pyridin-7-yl}-N-{[2-(cyclopentylmethoxy)phenyl]methyl}-2,6-dimethylpyridine-3-carboxamide], the IC50 in assay [1] (setting [5]) was < 20 nM; in assay [2] (setting [6]) it was 20 to 200 nM.

Take `[2H]C([2H])(NC(=O)c1cc(-c2ccn3nc(N)nc3c2)cnc1OC)c1cc(OC(F)(F)F)ccc1F` [Example 87, 5-{2-amino-[1,2,4]triazolo[1,5-a]pyridin-7-yl}-N-{[2-fluoro-5-(trifluoromethoxy)phenyl] (deutero)methyl}-2-methoxypyridine-3-carboxamide]: the IC50 is < 20 nM in assay [1] (setting [5]) and 20 to 200 nM in assay [2] (setting [6]).

Turning to `CCc1ncc(-c2ccn3nc(N)nc3c2)cc1C(=O)NCc1cc(C(F)(F)F)ccc1F` [Example 322, 5-(2-amino-[1,2,4]triazolo[1,5-a]pyridin-7-yl)-2-ethyl-N-(2-fluoro-5-(trifluoromethyl)benzyl)nicotinamide], the IC50 in assay [1] (setting [7]) and in assay [2] (setting [6]) was 20 to 200 nM each time.

Take `Cc1ncc(-c2ccn3nc(N)nc3c2)cc1C(=O)NCc1cc(F)ccc1-c1ccn(C)n1` [Example 298, 5-(2-amino-[1,2,4]triazolo[1,5-a]pyridin-7-yl)-N-(5-fluoro-2-(1-methyl-1H-pyrazol-3-yl)benzyl)-2-methylnicotinamide]: the IC50 was 20 to 200 nM in assay [1] (setting [7]) and > 200 nM in assay [2] (setting [4]).

For the compound `Nc1nc2cc(-c3cnc(N)c(C(=O)NCc4ccccc4OC4CCCC4)c3)ccn2n1` [Example 54, 2-Amino-5-{2-amino-[1,2,4]triazolo[1,5-a]pyridin-7-yl}-N-{[2-(cyclopentyloxy)phenyl]methyl}pyridine-3-carboxamide], the IC50 in assay [1] (setting [5]) is < 20 nM; in assay [2] (setting [6]) it was 20 to 200 nM.

As to `COc1ncc(-c2ccn3nc(N)nc3c2)cc1C(=O)NCc1cc(F)cc(F)c1O[C@H]1CCOC1` [Example 360, (S)-5-(2-amino-[1,2,4]triazolo[1,5-a]pyridin-7-yl)-N-(3,5-difluoro-2-((tetrahydrofuran-3-yl)oxy)benzyl)-2-methoxynicotinamide], the IC50 in assay [1] (setting [5]) is < 20 nM; in assay [2] (setting [6]) it was 20 to 200 nM.

As for `CCOc1ncc(-c2ccn3nc(N)nc3c2)cc1C(=O)NC[C@H]1C[C@@H]1COc1ccc(Br)cc1F` [Example 273, 5-{2-amino-[1,2,4]triazolo[1,5-a]pyridin-7-yl}-N-{[(1S,2S)-2-[(4-bromo-2-fluorophenoxy)methyl]cyclopropyl]methyl}-2-ethoxypyridine-3-carboxamide], the IC50 in assay [1] (setting [3]) was > 200 nM; in assay [2] (setting [6]) it was 20 to 200 nM.

In the case of `Cc1nc(C)c(-c2ccn3nc(N)nc3c2)cc1C(=O)NCc1cccc(OCC2CC2)c1` [Example 176, 5-{2-amino-[1,2,4]triazolo[1,5-a]pyridin-7-yl}-N-{[3-(cyclopropylmethoxy)phenyl]methyl]-2,6-dimethylpyridine-3-carboxamide], the IC50 in assay [1] (setting [7]) is 20 to 200 nM; in assay [2] (setting [4]), > 200 nM.

Take `[2H]C([2H])([2H])[C@H](NC(=O)c1cc(-c2ccn3nc(N)nc3c2)cnc1C)c1cccc(OC(F)(F)F)c1` [Example 310, (S)-5-(2-amino-[1,2,4]triazolo[1,5-a]pyridin-7-yl)-2-methyl-N-(1-(3-(trifluoromethoxy)phenyl)ethyl-2,2,2-H3)nicotinamide]: the IC50 is 20 to 200 nM in assay [1] (setting [7]) and > 200 nM in assay [2] (setting [4]).

For the compound `Cc1nc(C)c(-c2ccn3nc(N)nc3c2)cc1C(=O)NCc1cc(F)cc(F)c1OC1CCOC(C)C1` (stereo not drawn) [Example 296, 5-(2-amino-[1,2,4]triazolo[1,5-a]pyridin-7-yl)-N-(3,5-difluoro-2-((2-methyltetrahydro-2H-pyran-4-yl)oxy)benzyl)-2,6-dimethylnicotinamide], the IC50 in assay [1] (setting [7]) and in assay [2] (setting [6]) was 20 to 200 nM in each case.

For `Cc1nc(C)c(-c2ccn3nc(N)nc3c2)cc1C(=O)NCc1cc(F)cc(F)c1OCC1CC1` [Example 184, 5-{2-amino-[1,2,4]triazolo[1,5-a]pyridin-7-yl}-N-{[2-(cyclopropylmethoxy)-3,5-difluorophenyl]methyl}-2,6-dimethylpyridine-3-carboxamide], the IC50 in assay [1] (setting [5]) and in assay [2] (setting [8]) was < 20 nM each time.

As for `[2H]C([2H])(NC(=O)c1cc(-c2ccn3nc(N)nc3c2)cnc1C)c1cc(C(F)(F)F)ccc1F` [Example 307, 5-(2-amino-[1,2,4]triazolo[1,5-a]pyridin-7-yl)-N-((2-fluoro-5-(trifluoromethyl)phenyl)methyl-H2)-2-methylnicotinamide], the IC50 was < 20 nM in assay [1] (setting [5]) and 20 to 200 nM in assay [2] (setting [6]).

On to `COc1cnc(-c2ccn3nc(N)nc3c2)cc1C(=O)NCCC(C)c1ccccc1` (stereo not drawn) [Example 390, 2-(2-amino-[1,2,4]triazolo[1,5-a]pyridin-7-yl)-5-methoxy-N-(3-phenylbutyl)isonicotinamide], for which the IC50 in assay [1] (setting [7]) was 20 to 200 nM; in assay [2] (setting [4]), > 200 nM.

In the case of `COc1ncc(-c2ccn3nc(N)nc3c2)cc1C(=O)NCc1ccccc1S(=O)(=O)N1CCCCCC1` [Example 111, 5-{2-amino-[1,2,4]triazolo[1,5-a]pyridin-7-yl}-N-{[2-(azepane-1-sulfonyl)phenyl]methyl}-2-methoxypyridine-3-carboxamide], the IC50 in assay [1] (setting [5]) is < 20 nM; in assay [2] (setting [4]) it was > 200 nM.

As to `COc1ncc(-c2ccn3nc(N)nc3c2)cc1C(=O)NCc1ccccc1O[C@@H]1C[C@H]2CC[C@@H]1C2` [Example 30, 5-{2-Amino-[1,2,4]triazolo[1,5-a]pyridin-7-yl}-N-({2-[(1R,2R,4S)-bicyclo[2.2.1]heptan-2-yloxy]phenyl}methyl)-2-methoxypyridine-3-carboxamide], the IC50 in assay [1] (setting [7]) and in assay [2] (setting [6]) was 20 to 200 nM in each case.

On to `Nc1nc2cc(-c3cnc(C4CC4)c(C(=O)NCc4cccc(OC(F)(F)F)c4)c3)ccn2n1` [Example 19, 5-{2-Amino-[1,2,4]triazolo[1,5-a]pyridin-7-yl}-2-cyclopropyl-N-{[3-(trifluoromethoxy)phenyl]methyl}pyridine-3-carboxamide], for which the IC50 in assay [1] (setting [7]) and in assay [2] (setting [6]) was 20 to 200 nM each time.

As for `Cc1ncc(-c2ccn3nc(N)nc3c2)cc1C(=O)NCc1ccccc1OCC(C)C` [Example 305, 5-(2-amino-[1,2,4]triazolo[1,5-a]pyridin-7-yl)-N-(2-isobutoxybenzyl)-2-methylnicotinamide], the IC50 in assay [1] (setting [7]) and in assay [2] (setting [6]) was 20 to 200 nM throughout.

With `COc1ncc(-c2ccn3nc(N)nc3c2)cc1NC(=O)Cc1cccc(C(F)(F)F)c1` [Example 416, N-(5-(2-amino-[1,2,4]triazolo[1,5-a]pyridin-7-yl)-2-methoxypyridin-3-yl)-2-(3-(trifluoromethyl)phenyl)acetamide], the IC50 in assay [1] (setting [7]) is 20 to 200 nM; in assay [2] (setting [4]), > 200 nM.

Turning to `[2H]C([2H])(NC(=O)c1cc(-c2ccn3nc(N)nc3c2)cnc1C)c1cc(F)cc(F)c1OCC1CC1` [Example 253, 5-{2-amino-[1,2,4]triazolo[1,5-a]pyridin-7-yl}-N-{[2-(cyclopropylmethoxy)-3,5-difluorophenyl](deutero)methyl}-2-methylpyridine-3-carboxamide], the IC50 in assay [1] (setting [5]) and in assay [2] (setting [8]) was < 20 nM throughout.

For the compound `COc1ncc(-c2ccn3nc(N)nc3c2)cc1C(=O)NCc1ncccc1OCC1CCCC1` [Example 124, 5-{2-amino-[1,2,4]triazolo[1,5-a]pyridin-7-yl}-N-{[3-(cyclopentylmethoxy)pyridin-2-yl]methyl}-2-methoxypyridine-3-carboxamide], the results for the IC50 in assay [1] (setting [5]) and in assay [2] (setting [6]) were < 20 nM and 20 to 200 nM, respectively.

Regarding `COc1nc(C)c(-c2ccn3nc(N)nc3c2)cc1C(=O)NC(C)c1cccc(OC(F)(F)F)c1` (stereo not drawn) [Example 223, 5-{2-amino-[1,2,4]triazolo[1,5-a]pyridin-7-yl}-2-methoxy-6-methyl-N-{1-[3-(trifluoromethoxy)phenyl]ethyl}pyridine-3-carboxamide], the IC50 in assay [1] (setting [5]) is < 20 nM; in assay [2] (setting [6]), 20 to 200 nM.
